Results: publication PMC7076388 (Pharmaceutics, 2020)

Assays:
RAW 264.7 cells = test: MTT cell viability, RAW 264.7 macrophages; format: cell-based, murine; details: for cytotoxic effect on RAW 264.7 viability: up to 100 µM, 24 h
Protocol: (§1) Adenocarcinoma gastric cells (AGS; Sigma-Aldrich, St. Louis, MO, USA), murine-macrophage cell line (RAW 264.7; American Type Culture Collection, LGC Standards S.L.U., Barcelona, Spain), and human foetal lung fibroblasts (MRC-5; ECACC, Porton Down Salisbury, UK) were cultured as a monolayer at 37 °C in a humidified incubator with 5% carbon dioxide. AGS and RAW 264.7 cells were grown in DMEM, supplemented with 1% streptomycin/penicillin and 10% FBS (Gibco®). MRC-5 cells were grown in MEM, supplemented with 1% streptomycin/penicillin and 10% FBS.
(§2) Cell viability was evaluated by the MTT reduction assay. Cells were cultured in 96-well plates (15,000 cells/well for AGS, 25,000 cells/well for RAW and 20,000 cells/well for MRC-5) and allowed to attach for 24 h. After incubation with compounds for 24 h, MTT (0.5 mg/mL final concentration) was added to each well and the plate was incubated for 75 min at 37 °C. Formazan crystals were dissolved by the addition of a DMSO: isopropanol mixture (3:1) and then quantified spectrophotometrically at 570 nm using a microplate reader (Multiskan Thermo Fisher Scientific Oy, Vantaa, Finland).

[1] = system: LPS-induced •NO production in RAW 264.7 cells; test: LPS-induced NO production in RAW 264.7 (Griess); format: cell-based, murine; details: Mus musculus, RAW264.7; RAW 264.7, LPS 1 µg/mL; read-out: IC50 (LPS-dependent •NO production)
Protocol: RAW 264.7 cells were cultured in 96-well plates (35,000 cells/well) for 24 h and then pre-treated with different concentrations of each compound. After 2 h, LPS was added (final concentration 1 µg/mL) and the plates were incubated at 37 °C, in a humidified atmosphere of 5% CO2. After 22 h, 75 µL of cell supernatant was transferred to a 96-well plate and mixed with 75 µL of Griess reagent (1% sulfanilamide and 0.1% naphthylethylenediamine dihydrochloride in 2% H3PO4). The plate was incubated at room temperature for 10 min in the dark and then the absorbance was read at 540 nm using a microplate reader (Multiskan Thermo Fisher Scientific Oy, Vantaa, Finland).

AGS cells = test: MTT cell viability, AGS cells; format: cell-based; details: 24 h; for toxicity towards AGS cells: 100 µM
Protocol: as §1, §2

[2] = biological target: T1, LOX from glycine max (soybean) (Glycine max, UniProt P08170); test: Lipoxygenase glycine max (soybean) assay; format: biochemical; details: for LOX inhibition at single concentration: 100 µM; for IC50: dose-response assay, read-out: IC50 for LOX inhibition
T1 construct: purchased Sigma-Aldrich
T1 sequence (P08170 1-839): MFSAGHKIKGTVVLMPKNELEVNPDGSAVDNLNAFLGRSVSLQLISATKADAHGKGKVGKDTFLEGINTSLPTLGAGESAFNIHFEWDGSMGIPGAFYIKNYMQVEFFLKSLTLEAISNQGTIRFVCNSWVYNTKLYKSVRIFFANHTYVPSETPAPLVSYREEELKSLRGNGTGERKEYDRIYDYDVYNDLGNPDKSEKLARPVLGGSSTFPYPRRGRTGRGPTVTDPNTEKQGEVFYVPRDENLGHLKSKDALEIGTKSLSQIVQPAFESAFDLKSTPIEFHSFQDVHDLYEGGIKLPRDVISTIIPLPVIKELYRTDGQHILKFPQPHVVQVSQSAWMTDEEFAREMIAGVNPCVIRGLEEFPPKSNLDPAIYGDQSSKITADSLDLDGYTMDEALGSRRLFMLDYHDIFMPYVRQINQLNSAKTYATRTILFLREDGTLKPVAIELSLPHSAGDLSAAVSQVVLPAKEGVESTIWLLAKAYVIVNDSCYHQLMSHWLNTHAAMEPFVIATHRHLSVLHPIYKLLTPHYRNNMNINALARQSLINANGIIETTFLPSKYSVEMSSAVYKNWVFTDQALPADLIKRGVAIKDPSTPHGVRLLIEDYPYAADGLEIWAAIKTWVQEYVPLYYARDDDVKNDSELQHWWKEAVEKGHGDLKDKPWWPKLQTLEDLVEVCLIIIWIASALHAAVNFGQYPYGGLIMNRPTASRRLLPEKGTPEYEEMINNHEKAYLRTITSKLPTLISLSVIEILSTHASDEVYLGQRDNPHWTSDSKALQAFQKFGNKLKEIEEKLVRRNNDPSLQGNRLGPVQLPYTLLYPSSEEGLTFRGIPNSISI
Protocol: The inhibitory effect on LOX was assessed in 96-well plates, using a modified version of a previously reported procedure from Pereira et al.. […] After 5 min pre-incubation at room temperature, the reaction was started by addition of linoleic acid substrate (20 µL of a 4.18 mM solution in ethanol). The reaction was monitored at 234 nm using a multiplate reader (Multiskan Thermo Fisher Scientific Oy, Vantaa, Finland), for 3 min.

COX-1 = biological target: T2, COX-1 (Ovis aries, UniProt P05979); test: COX fluorescent inhibitor screening assay, COX-1; format: biochemical
T2 construct: purchased Cayman Chemical
T2 sequence (P05979 25-600): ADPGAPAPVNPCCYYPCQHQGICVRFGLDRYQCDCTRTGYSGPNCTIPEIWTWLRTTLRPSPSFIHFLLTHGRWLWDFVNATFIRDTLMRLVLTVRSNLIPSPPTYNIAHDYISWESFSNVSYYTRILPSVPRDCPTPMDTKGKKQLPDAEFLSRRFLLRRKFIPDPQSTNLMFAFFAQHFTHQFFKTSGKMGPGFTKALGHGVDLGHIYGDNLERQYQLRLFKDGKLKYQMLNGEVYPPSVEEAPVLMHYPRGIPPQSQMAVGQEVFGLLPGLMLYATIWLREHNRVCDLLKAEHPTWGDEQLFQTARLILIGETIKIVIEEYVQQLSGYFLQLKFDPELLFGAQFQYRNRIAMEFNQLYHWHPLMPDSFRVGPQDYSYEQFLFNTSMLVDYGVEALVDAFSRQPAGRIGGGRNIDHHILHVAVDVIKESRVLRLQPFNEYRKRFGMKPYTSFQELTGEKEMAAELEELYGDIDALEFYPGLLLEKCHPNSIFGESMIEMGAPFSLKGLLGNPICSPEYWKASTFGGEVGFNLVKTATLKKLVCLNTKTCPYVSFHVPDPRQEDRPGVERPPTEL
Protocol: (§3) The assay was performed using the COX fluorescent inhibitor screening assay kit (Cayman chemical, MI, USA), with some modifications. […] After 5 min of incubation at room temperature, 5 µL of 10-acetyl-3,7-dihydroxyphenoxazine (ADHP) and 20 µL of a solution containing arachidonic acid (0.5 mM) and KOH (2.5 mM) were added to each well.

COX-2 = biological target: T3, COX-2 (Homo sapiens, UniProt P35354); test: COX fluorescent inhibitor screening assay, COX-2; format: biochemical
T3 construct: purchased Cayman Chemical
T3 sequence (P35354 18-604): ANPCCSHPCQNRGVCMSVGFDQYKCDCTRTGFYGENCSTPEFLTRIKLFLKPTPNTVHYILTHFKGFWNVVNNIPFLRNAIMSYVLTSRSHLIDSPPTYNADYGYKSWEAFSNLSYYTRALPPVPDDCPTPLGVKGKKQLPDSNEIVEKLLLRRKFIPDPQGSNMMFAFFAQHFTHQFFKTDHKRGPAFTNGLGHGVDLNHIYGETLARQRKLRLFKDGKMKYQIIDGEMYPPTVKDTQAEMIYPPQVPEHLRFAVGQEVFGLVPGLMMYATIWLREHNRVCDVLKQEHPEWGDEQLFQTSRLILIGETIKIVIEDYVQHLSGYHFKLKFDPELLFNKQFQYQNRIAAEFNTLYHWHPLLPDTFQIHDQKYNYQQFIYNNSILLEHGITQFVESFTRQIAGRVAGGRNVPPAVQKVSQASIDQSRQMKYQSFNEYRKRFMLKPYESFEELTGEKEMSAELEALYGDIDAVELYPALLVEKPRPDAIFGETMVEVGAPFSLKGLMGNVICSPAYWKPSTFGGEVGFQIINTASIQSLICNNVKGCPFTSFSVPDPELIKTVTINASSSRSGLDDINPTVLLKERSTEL
Protocol: as §3

[3] = biological target: 20S proteasome isolated from erythrocytes (Homo sapiens, UniProt P28074); test: 20S proteasome inhibition (chymotrypsin-like activity); format: biochemical; set-up: purified 20S proteasome isolated from erythrocytes (Enzo Life Sciences); purchased Enzo Life Sciences; host or cells: erythrocytes; details: 100 µM
Protocol: Proteasome activity was measured by adapting a method described by Silva et al.. The substrate used to study chymotrypsin-like enzyme activity was Suc-Leu-Leu-Val-Tyr-AMC and the enzyme used was purified 20S proteasome isolated from erythrocytes (Enzo Life Sciences). […] The plate was incubated at 37 °C in the dark for 2 h. […] Lactacystin was used as positive control.

[4] = MTT cell viability, MRC-5 cells; format: cell-based; details: human, MRC-5 cells (human foetal lung fibroblasts)
Protocol: as §1, §2

[5] = Solubility in enzymatic assay buffer; format: physicochemical

## CC=C(NC(=O)C(Cc1c[nH]c2ccccc12)NC(=O)C(C)c1ccc2cc(OC)ccc2c1)C(=O)O [Compound 8, Npx-L-Trp-Z-ΔAbu-OH]
RAW 264.7 cells
  cytotoxic effect on RAW 264.7 viability: did not show any statistically significant cytotoxic effects
[1]
  IC50: 84.4 µM
AGS cells
  toxicity towards AGS cells: not toxic
[2]
  LOX inhibition at single concentration: significantly inhibit the LOX enzyme to a similar level to naproxen
  IC50: 48.9 µM

## COc1ccc2cc(C(C)C(=O)NC(CCSC)C(=O)NC(=Cc3ccccc3)C(=O)O)ccc2c1 [Compound 6, Npx-L-Met-Z-ΔPhe-OH]
RAW 264.7 cells
  cytotoxic effect on RAW 264.7 viability: did not show any statistically significant cytotoxic effects
AGS cells
  toxicity towards AGS cells: not toxic
[2]
  LOX inhibition at single concentration: significantly inhibit the LOX enzyme to a similar level to naproxen
  IC50: 60.3 µM

## COc1ccc2cc(C(C)C(=O)NC(C)C(=O)NC(=Cc3ccccc3)C(=O)O)ccc2c1 [Compound 4, Npx-L-Ala-Z-ΔPhe-OH]
COX-1
  inhibition at 25 µM: 9%
RAW 264.7 cells
  cytotoxic effect on RAW 264.7 viability: did not show any statistically significant cytotoxic effects
AGS cells
  toxicity towards AGS cells: not toxic
COX-2
  inhibition at 25 µM: 66%
[2]
  LOX inhibition at single concentration: significantly inhibit the LOX enzyme to a similar level to naproxen
  IC50: 55.7 µM

## COc1ccc2cc(C(C)C(=O)NC(Cc3c[nH]c4ccccc34)C(=O)NC(=Cc3ccccc3)C(=O)O)ccc2c1 [Compound 3, Npx-L-Trp-Z-ΔPhe-OH]
[3]; read-out: 20S proteasome enzyme activity remaining
  remaining activity at 100 µM: 52%
RAW 264.7 cells
  cytotoxic effect on RAW 264.7 viability: did not show any statistically significant cytotoxic effects
[1]
  IC50: 64.7 µM
AGS cells
  toxicity towards AGS cells: slightly cytotoxic
[2]
  LOX inhibition at single concentration: significantly inhibit the LOX enzyme to a similar level to naproxen
  IC50: 55.9 µM

## COc1ccc2cc(C(C)C(=O)NC(CCCCN)C(=O)NC(=Cc3ccccc3)C(=O)O)ccc2c1 [Compound 5, Npx-L-Lys-Z-ΔPhe-OH]
[4]
  viability at 24 h, 100 µM: ~79%
RAW 264.7 cells
  cytotoxic effect on RAW 264.7 viability: small cytotoxic effect
AGS cells
  toxicity towards AGS cells: slightly cytotoxic
[2]
  LOX inhibition at single concentration: not able to inhibit LOX activity

## COC(=O)C(=Cc1ccccc1)NC(=O)C(Cc1ccc(O)cc1)NC(=O)C(C)c1ccc2cc(OC)ccc2c1 [Compound 7, Npx-L-Tyr-Z-ΔPhe-OMe]
[3]
  20S proteasome inhibition: not able to inhibit the 20S proteasome
[4]
  viability at 24 h, 100 µM: ~87%
[5]; Tris-HCl pH 8.0
  solubility in COX assay medium: insoluble in the assay medium
[5]; phosphate buffer pH 9.0
  solubility in LOX assay buffer solution: insolubility in the assay buffer solution
RAW 264.7 cells; Mus musculus, RAW264.7, 24 h
  IC50: 23.1 µM
AGS cells; Homo sapiens, AGS
  IC50: 10.9 µM
